Assay results from patent publication US20240299415A1, “TREATMENT METHOD FOR INTERSTITIAL PNEUMONIA” (priority 2020, published 2024).

Assays:
Assay type in all cases: in vivo
[1] = test system: bleomycin-induced pulmonary fibrosis model in rats; assay: Dexamethasone side effect indicators (blood lipid metabolism) in the bleomycin-induced rat pulmonary fibrosis model; conditions: FIG. 3; for leptin level compared with the normal control rats: bleomycin model rats
Protocol: (§1) The quarantine and domestication period was 1 week, after which rats were serpentinely grouped by body weight into control and interstitial pneumonia model groups. On day 0 of the study, rats in the model group were given a single dose of 5 mg/kg bleomycin by a single intratracheal injection of bleomycin. The rats in the control group were given a single drop of saline. Immediately after completion, the animals were placed in an upright position and rotated to facilitate uniform distribution of the drug in the lungs. The animals were placed prone in a warm environment for natural awakening. Animals were fed and watered freely after awakening.
Serum potassium, glucose, triglycerides (TGs), total cholesterol (TC), free fatty acid (FFA), high density lipoprotein (HDL-c), low density lipoprotein (LDL-c), corticosterone (Corticosterone), and blood glucose were measured. HDL-c), low-density lipoprotein cholesterol (LDL-c), corticosterone (CORT), insulin, leptin, 5-hydroxy tryptamine (5-HT), […] norepinephrine (NE).

[2] = test system: bleomycin-induced rat model of pulmonary fibrosis; assay: Blood inflammatory and pro-fibrotic cytokines (ELISA) in the bleomycin-induced rat model of pulmonary fibrosis; conditions: for bleomycin-induced changes of multiple inflammatory cytokines in the blood of rats (overall statement): compared with the model group, N=6-10
Protocol: as §1
(§2) After the last administration, rats in each group were fasted without water for 12 h, anesthetized by intraperitoneal injection of […] chloral hydrate (3.5 mL/kg), blood was taken from the abdominal aorta, and the serum was separated by centrifugation at 3500 rpm for 15 min. ELISA was performed to detect the cytokines TNF-α, IL-1β, IFN-γ, IL-6, TGF-β1, and IL-4 in alveolar lavage fluid and serum, MCP-1/CCL2, and to detect the content of HYP, MMP2, MMP9, αvβ6, and VEGF in lung tissues, the steps were the same as the standard procedure of the kit.

[3] = test system: bleomycin-induced pulmonary fibrosis model in rats; assay: Pro-fibrotic proteins and type I collagen in lung tissue of the bleomycin-induced rat pulmonary fibrosis model; conditions: FIG. 2; for multiple pro-fibrotic proteins and collagen type I in rat lung tissues (overall statement): compared with the model group, N=3
Protocol: as §1, §2

[4] = SD rats, bleomycin 5 mg/kg intratracheal day 0, drug by gavage once daily days 1-28, FIG. 1
[5] = bleomycin decreased the level, drug once daily days 1-28, FIG. 1
[6] = bleomycin model rats, change statistically significant

## C[C@@H]1C[C@H]2[C@@H]3CCC4=CC(=O)C=C[C@]4(C)[C@@]3(F)[C@@H](O)C[C@]2(C)[C@@]1(O)C(=O)CO [dexamethasone]
[1]
  leptin level compared with the normal control rats: significantly reduced
[1]; dexamethasone treatment in bleomycin model rats
  total cholesterol in the blood: increase
[1]; dexamethasone treatment in bleomycin model rats, increase more pronounced than for total cholesterol
  triglycerides in the blood: increase

## CCCCCC(=O)O[C@]1(C(C)=O)CC[C@H]2[C@@H]3CCC4=CC(=O)CC[C@]4(C)[C@H]3CC[C@@]21C [hydroxyprogesterone caproate]
[1]
  leptin level compared with the normal control rats: significantly reduced
[2]; [4]
  blood level of IL-1β: significantly reduced
  blood level of IL-6: significantly reduced
  blood level of MCP-1: significantly reduced
  blood level of TGF-β1: significantly reduced
  blood level of TNF-α: significantly reduced
[2]; [5]
  blood level of IFN-γ: significantly and statistically increased
  blood level of IL-4: significantly and statistically increased
[2]; FIG. 1
  bleomycin-induced changes of multiple inflammatory cytokines in the blood of rats (overall statement): significantly improve
[2]; FIG. 1, listed as 17-αhydroxyprogesterone
  bleomycin-induced changes of multiple inflammatory cytokines in the blood of rats (overall statement): significantly ameliorated
[2]; versus positive control drug pirfenidone (54 mg/kg)
  combined improvement effect on inflammatory and pro-fibrotic factors in the blood, compared with pirfenidone: significantly better than that of the positive control drug pirfenidone
[3]; bleomycin model rats
  CXCL-12 level in lung tissue: reduced
  MMP9 level in lung tissue: reduced
  collagen type I COL I protein level in lung tissue: reduced
[3]; [6]
  MMP2 level in lung tissue: reduced
  PDGF level in lung tissue: reduced
  SMAD2 level in lung tissue: reduced
  SMAD3 level in lung tissue: reduced
  TGF-β1 level in lung tissue: reduced
[3]
  multiple pro-fibrotic proteins and collagen type I in rat lung tissues (overall statement): significant inhibitory effects
[3]; listed as 17-αhydroxyprogesterone
  multiple pro-fibrotic proteins and collagen type I in rat lung tissues (overall statement): significantly ameliorated
